Measured values taken from patent US20100209486A1, “Method of enhancing CoenzymeQ10 levels in mammals” (priority 2009, published 2010).
Entries after “also recorded” stand apart in the source; their conditions may differ.

Test: HPLC and MS determination of CoQ9 and CoQ10 in heart samples of supplemented guinea pigs
Type: in vivo, guinea pig
Conditions: 5 mg/kg/day CoQ9 oral for 4 weeks, heart tissue
Protocol: FIG. 3. HPLC chromatograms of a) Blank (mobile phase) b) CoQ9 standard solution c) CoQ10 standard solution and d) CoQ9 heart sample. The standards and sample solution were analyzed using an Agilent 1100 HPLC. The mobile phase was methanol-2-propanol-formic acid (45:55:0.05, v/v/v) containing methylamine at the concentration of 5 mmol/L. At a flow rate of 0.2 ml/min, 5 μl injections of the samples were done using the autosampler. The CoQ9 peak eluted at 2.39 minutes and the CoQ10 eluted at 2.86 minutes. However, the CoQ9 heart sample peak eluted at […], which is the same as CoQ10, thus indicating the presence of CoQ10 rather than CoQ9 in the sample.
FIG. 4. Mass Spectrometry (MS). (a) CoQ10 standard, b) CoQ9 standard, c) CoQ10 heart sample) Methylamine was used in the mobile phase to obtain the methyl ammonium adduct molecules of CoQ9 and CoQ10. The sensitivity of the adduct ions [M+CH3NH3]^+ was much higher than that of the protonated ions [M+H]^+ [7]. The MS spectra of both [M+CH3NH3][…] at m/z 826.5 for CoQ9 and m/z 894.6 for CoQ10 were observed. However, the CoQ9 heart sample indicated a mass peak at m/z 894.6, which matches the peak for CoQ10 and not CoQ9. Therefore, there was evidence of CoQ10 in the CoQ9 heart sample from the mass spec. data. This confirmed the hypothesis of bio-conversion of CoQ9 to CoQ10.
However, the retention time of CoQ9 heart sample indicated a retention time of 2.86 minutes and not 2.39 minutes (FIG. 3d). The retention time of the CoQ9 heart sample matched with that of CoQ10 rather than CoQ9. The qualitative analysis was done by identifying the compounds by their retention times. It was obvious that at this point CoQ9 was probably bio-converted to CoQ10. […]
Preparation of CoQ9 and CoQ10 heart samples: Animal preparation, drug pretreatment and isolated working heart preparation were done as described in example 1. […] The samples were analyzed immediately after preparation, and the remainder of the standard solutions was stored at 5° C. for future analysis. […]

COC1=C(OC)C(=O)C(C/C=C(\C)CC/C=C(\C)CC/C=C(\C)CC/C=C(\C)CC/C=C(\C)CC/C=C(\C)CC/C=C(\C)CC/C=C(\C)CCC=C(C)C)=C(C)C1=O [CoQ9, Coenzyme Q9]
CoQ9 detected in the heart after CoQ9 supplementation: no CoQ9 could be detected in the heart; also recorded: very small or no amount of CoQ9 | bioconversion of CoQ9 into CoQ10: a substantial portion of CoQ9 had been bio-converted into CoQ10; also recorded: complete bioconversion of CoQ9 into CoQ10 | CoQ10 content in the heart after CoQ9 supplementation (control chromatogram subtracted): appreciable amount of CoQ10 in the heart tissue; also recorded: significantly high enrichment in the CoQ10 content
